Where a chain is given by its changes, count along the chain named.
How the values were obtained:
hT1R1 Y220A = molecular target: T1, hT1R1 Y220A (Homo sapiens, UniProt Q7RTX1, Y220A); experiment: Mutagenesis study, hT1R1 mutant Y220A; format: cell-based; settings: Y220 mutant, FIG. 11
T1 construct: expressed in transfected cells; host or cells: HEK293, transient transfection
T1 sequence (Q7RTX1 21-841 Y220A): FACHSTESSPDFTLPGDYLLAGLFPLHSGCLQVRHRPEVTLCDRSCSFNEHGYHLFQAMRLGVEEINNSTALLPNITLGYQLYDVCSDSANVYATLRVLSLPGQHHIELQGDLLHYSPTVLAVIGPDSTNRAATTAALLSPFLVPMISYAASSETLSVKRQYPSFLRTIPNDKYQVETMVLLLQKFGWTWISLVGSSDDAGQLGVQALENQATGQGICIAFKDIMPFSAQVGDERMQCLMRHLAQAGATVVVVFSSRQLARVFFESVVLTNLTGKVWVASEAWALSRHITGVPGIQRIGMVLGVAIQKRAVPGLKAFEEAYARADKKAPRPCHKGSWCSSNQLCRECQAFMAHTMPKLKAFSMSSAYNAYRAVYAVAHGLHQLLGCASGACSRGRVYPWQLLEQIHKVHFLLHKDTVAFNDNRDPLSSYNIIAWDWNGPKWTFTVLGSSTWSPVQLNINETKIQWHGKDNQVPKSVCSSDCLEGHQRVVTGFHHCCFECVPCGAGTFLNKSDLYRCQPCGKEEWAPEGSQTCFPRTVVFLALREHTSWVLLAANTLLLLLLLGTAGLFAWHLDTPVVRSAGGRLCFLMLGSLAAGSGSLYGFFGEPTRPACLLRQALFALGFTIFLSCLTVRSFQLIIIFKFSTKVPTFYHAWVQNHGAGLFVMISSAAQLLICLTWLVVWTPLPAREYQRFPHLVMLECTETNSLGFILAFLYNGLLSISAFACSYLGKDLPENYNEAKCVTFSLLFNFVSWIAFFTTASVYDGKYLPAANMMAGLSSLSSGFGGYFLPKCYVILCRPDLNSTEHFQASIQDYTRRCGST
T1 sequence (Q923K1 21-858 partner): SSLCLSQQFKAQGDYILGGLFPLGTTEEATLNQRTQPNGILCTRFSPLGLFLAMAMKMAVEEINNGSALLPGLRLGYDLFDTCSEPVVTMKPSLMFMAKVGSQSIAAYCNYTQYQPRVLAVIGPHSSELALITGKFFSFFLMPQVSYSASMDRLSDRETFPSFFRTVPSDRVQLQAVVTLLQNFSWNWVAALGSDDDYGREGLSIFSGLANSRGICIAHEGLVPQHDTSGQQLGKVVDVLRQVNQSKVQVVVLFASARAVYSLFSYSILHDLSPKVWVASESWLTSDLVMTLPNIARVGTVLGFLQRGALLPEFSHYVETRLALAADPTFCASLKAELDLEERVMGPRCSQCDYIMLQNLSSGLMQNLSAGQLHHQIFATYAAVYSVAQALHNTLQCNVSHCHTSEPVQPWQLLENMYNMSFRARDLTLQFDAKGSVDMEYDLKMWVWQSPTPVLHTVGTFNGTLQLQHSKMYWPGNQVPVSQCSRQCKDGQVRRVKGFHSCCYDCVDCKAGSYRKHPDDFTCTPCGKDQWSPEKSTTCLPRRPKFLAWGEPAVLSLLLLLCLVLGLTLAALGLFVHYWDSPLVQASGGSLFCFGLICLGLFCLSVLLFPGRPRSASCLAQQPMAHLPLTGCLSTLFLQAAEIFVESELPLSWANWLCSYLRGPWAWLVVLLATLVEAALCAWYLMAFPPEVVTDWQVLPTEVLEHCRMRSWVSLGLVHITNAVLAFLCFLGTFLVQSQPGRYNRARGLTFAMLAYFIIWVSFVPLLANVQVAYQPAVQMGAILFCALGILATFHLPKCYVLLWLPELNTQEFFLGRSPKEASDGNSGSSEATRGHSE
Source text: (§1) In order to further define the interaction sites of umami stimuli, we performed site-directed mutagenesis on human T1R1 VFT. The mutagenesis was done using the routine PCR-based method. […] were transiently transfected into HEK293 cell together with the rat T1R3 wild type cDNA, and the transfected cells were characterized using an automated FLIPR machine or a calcium imaging system as described in our previous patent applications.

hT1R1 E301A = molecular target: T2, hT1R1 E301A (Homo sapiens, UniProt Q7RTX1, E301A); experiment: Mutagenesis study, hT1R1 mutant E301A; format: cell-based; settings: E301 mutant, FIG. 11
T2 construct: expressed in transfected cells; host or cells: HEK293, transient transfection
T2 sequence (Q7RTX1 21-841 E301A): T1 sequence (Q7RTX1 21-841 Y220A) with A200Y, E281A
T2 sequence (Q923K1 21-858 partner): T1 sequence (Q923K1 21-858 partner)
Source text: as §1

N[C@@H](CCC(=O)O)C(=O)O [L-Glu, L-glutamate]
activity against L-Glu (hT1R1 Y220A): significant reduced activity | activity against L-Glu (hT1R1 E301A): significant reduced activity
